Entries after “also recorded” stand apart in the source; their conditions may differ. Ends that are not written are not given here.
Legend:
[1] = Separation of micromer^LPS (artificial gram-negative bacteria); conditions: initial 0.1 mg/ml micromer^LPS, 1 mg/ml Fe, 2 h, OD 620 nm
Method: For a better understanding of the separation process, the inventors tried to remove artificial micromers to simulate bacteria. For this, LPS coated polystyrene/polymethacrylate Micromer® particles (micromer^LPS) were used and removed from a water suspension instead of living bacteria. […] This experiment was performed by optical density measurements at 620 nm, as it is done for actual bacteria.
For this experiment micromer® particles (micromer) were incubated with endotoxin to receive endotoxin coated micromer particles (micromer^LPS). Any other polymeric particles of similar size could have been used as an alternative. It has been reported, that endotoxins stick to surfaces and can be attached to polymeric particles. Therefore, particles bearing 1 mg particles/ml was incubated with 1 μg/ml endotoxin LPS3 for 2 h at 1400 rpm. After centrifugation the particles were washed several times.
SPION^APTES-SBA-SPP04 and unmodified SPION^HAp with a Fe concentration of 1 mg/ml were incubated with 0.1 mg micromer^LPS for 2 h at 1400 rpm and 37° ° C. SPION^APTES served as a control. A calibration curve was prepared with different concentrations of micromer^LPS. The calibration samples and the magnetically decanted supernatants were measured in the reader at 620 nm absorption wavelength like it is used for the OD measurements of bacteria (Brenner et al. 2005 and Chen et al. 2011). […]

E. coli [2] = assay: Separation of E. coli from blood; type: cell-based
Method: For this experiment, E. coli was added to blood and then 0.3 mg Fe/ml particles were used to extract/separate the bacteria. Thus, the remaining bacterial load in the blood was tested as a first aspect of this experiment. Furthermore, citrate and EDTA-stabilized blood was used and compared, as EDTA is expected to hinder the binding of the peptide to the bacteria. Therefore, the depletion of bacteria is expected to be lower in EDTA-stabilized blood compared to citrate-stabilized blood. The overall bacterial load in citrate stabilized blood amounted to 1913 colony forming units per milliliter (CFU/ml) (FIG. 15). SPION^APTES-SBA-SPP04 particles reduced the concentration to 927 CFU/ml in citrate-stabilized blood. […] For completeness, in EDTA-stabilized blood, the amount of CFUs was reduced from 2867 CFU/ml to 1733 CFU/ml by SPION^APTES-SBA-SPP04. Thus, a reduction of around 40% was achieved.
In this experiment we used blood from health volunteers and added an amount of bacteria to it. A concentration of 0.3 mg Fe/ml was used for the particles. To 0.8 ml of blood, (citrate or EDTA stabilized) 0.1 bacteria suspension in Ringer's solution have been added. After 5 min. of incubation, 0.1 ml of particles (3 mg Fe/ml) in Ringer's solution have been added. Samples were incubated for 5 minutes on a shaker at 700 rpm. After incubation, the particles have been removed by placing a magnet (310 mT) behind the samples. After 3 min separation of the particles the supernatant were plated out. As a negative control only 0.2 ml Ringer's solution was added to blood. The positive control consisted of 0.8 ml blood and 0.1 ml bacteria suspension and another 0.1 ml Ringer's solution. In addition the particles were washed one time after separation and then redispersed in Ringer's solution and plated out.
After 16 h of incubation, the CFUs (colony forming units) on the plates have been counted. The samples have been compared to the amount found in the positive control.

[3] = Hydrodynamic particle size (dynamic light scattering); type: physicochemical; conditions: neutral pH (e.g. around 7)
Method: Dynamic light scattering (DLS) was performed with a Zetasizer Nano ZS (Malvern Panalytical, Almelo, Netherlands) to determine the hydrodynamic particle size of the NP at 25° C.in water (refractive index 1.33; viscosity 0.8872 mPa-s; backscattering mode at 173°). The same device was used to measure the particle's aqueous zeta potential with 78.5 as dielectric constant. Measurements were done in triplicate at an iron concentration of 50 μg/ml and pH of 7.4, the results were averaged.

E. coli [4] = assay: Magnetic separation of E. coli from aqueous medium (Ringer solution); type: cell-based; conditions: 5 minutes incubation, 3 minutes separation
Method: E. coli were incubated with particles for 5 minutes and then separated for 3 minutes. Supernatants were plated out. […] A reduction of the particle amount to 0.1 mg Fe/ml led to a reduced bacterial separation 170 CFUS).

Pseudomonas aeruginosa = assay: Depletion of Pseudomonas aeruginosa from aqueous medium; type: cell-based; conditions: from 5320 CFU/ml, 0.3 mg Fe/ml
Method: (§1) Analogous observations are shown in FIG. 13 for the gram negative bacterium Pseudomonas aeruginosa reduction from 5320 CFU/ml to 2 CFU/ml for SPION^APTES-SBA-SPP04 and 7 CFU/ml for SPION^APTES-SBA-SPP19 could be achieved. For Serratia marcescens (gram−) a reduction from 1300 CFU/ml to 26 CFU/ml for SPION^APTES-SBA-SPP04 could be achieved as shown in FIG. 14. Redispersed particles that were plated out yielding a recovery of 1227 CFU/ml for SPION^APTES-SBA-SPP04, which is similar to the positive control.

Serratia marcescens = assay: Depletion of Serratia marcescens from aqueous medium; type: cell-based
Method: as §1

Staphylococcus aureus = assay: Depletion of Staphylococcus aureus from aqueous medium; type: cell-based; conditions: for Staphylococcus aureus after separation: from 1393 CFU/ml, 0.3 mg Fe/ml, Ringer's solution; for CFU of re-plated bacteria loaded particles: re-plating, S. aureus
Source text: For testing the separation of S. aureus from a sample, particles were functionalized with the peptides SPP04 and SPP19 for this experiment. The bacterial suspension was adjusted to an OD (measured at 600 nm) of 0.13 and then diluted 1:800 with Ringer's solution. […] It could also be shown that the particles have no toxic effect on the bacteria. For Staphylococcus aureus (gram+) a reduction from 1393 CFU/ml to 27 CFU/ml for SPION^APTES-SBA-SPP04 and 73 CFU/ml for SPION^APTES-SBA-SPP19 could be achieved by separation as shown in FIG. 12.

bacteria = assay: Concentration of viable bacteria (10 ml sample, plating); type: cell-based; conditions: 0.3 mg Fe/ml, 30 minutes, 310 mT 3 minutes, 10 ml to 0.5 ml
Method: In this experiment, an approach as used with common blood cultures in order to identify pathogens was chosen. The total volume was set to 10 ml. The bacterial suspension was adjusted to an OD (measured at 600 nm) of 0.13 with Ringer's solution analogous to the previous experiments. A sample, which was not treated with SPIONs, served as a control. A concentration of 0.3 mg Fe/ml SPION^APTES-SBA-SPP04 was used. Incubation was performed for 30 minutes at room temperature on a rolling incubator. The particles were then magnetically separated for 3 minutes at 310 mT. 0.5 ml Ringer's solution was added to the particle pellets and vortexed. […] A total of 50 μl was plated out for each sample. […] Compared to common blood cultures, bacterial pathogens can be detected faster by using this method, because the amplification step of the bacteria using blood culture bottles could be omitted.

[5] = tested on: LPS (E. coli LPS O55:B5, O26:B6, O111:B4); assay: LPS (endotoxin) binding, EndoZyme Recombinant Factor C Assay; conditions: 10 EU/ml LPS
Method: In order to evaluate general parameters of the concentration and incubation time with SPIONs, the inventors analysed conditions that are representative for these parameters. A high and a low particle concentration, as well as two exposure conditions were tested (agitation for 30 sec and 3 sec; particle concentration of 0.01 mg Fe/ml and 1 mg Fe/ml) were tested with the peptide exposing SPION^APTES-SBA-SPP04 and non-peptide exposing SPION^HAP. The concentration of peptide for the functionalized particles was assumed to be 0.08 μmol peptide/mg Fe, as assessed above. As other particles have been reported to bind certain amounts of LPS unspecifically, SPION^HAp are interesting for our experiments concerning this concern as a control.
Binding studies of endotoxin were performed with EndoZyme Recombinant Factor C Assay kit (Hyglos, Germany). In this kit, LPS is detected by recombinant Factor C, thus excluding possible interferences by p-glucans. Calibration curves for the three different LPSs have been prepared in endotoxin free water. SPION^APTES-SBA-SPP04 was used in this study as its efficacy has been described previously. For this experiment, we used two different iron concentrations (1 mg Fe/ml and 0.01 mg Fe/ml) and two incubation parameters (30 s at 1400 rpm and 37° C. as well as 3 s at RT). Three different LPSs were added to 200 μl of the different particle dispersions. The final concentration of LPS was set to 10 EU/ml in each tested sample. Spiking controls (8 and 5 EU/ml) were carried out to see if any interference occurred for all tested particles.
Supernatants were produced using a neodymium magnet (310 mT at separation side) for three minutes. 50 μl of each supernatant were mixed with 50 μl of the assay reagent (80% v/v assay buffer, 10% v/v substrate, 10% v/v enzyme) in black, endotoxin-free 96-well plates. The reaction was monitored for 90 minutes at 37° C. in 15 min intervals by recording the fluorescence at an excitation wavelength of 360 nm and an emission at 465 nm in a Filter-Max F5 Plate reader (Molecular Devices).

[6] = tested on: lipoteichonic acids (LTA); assay: Binding of LTA in aqueous Ringer' solution; conditions: 0.3 mg Fe/ml, 2.5 ng/ml LTA; for LTA bound: 5 minutes at 37° C., magnet 3 minutes
Method: The binding of a further relevant toxin (from gram-positive bacteria) was also investigated with the improved particles as disclosed herein, which was not described in Karawacka et al. (2018). These experiments were performed in aqueous Ringer' solution. […] For this experiment, 2.5 ng/ml LTA were used and incubated for 5 minutes at 37° C. on a shaker at 700 rpm. Subsequently, the particles were separated magnetically for 3 minutes. […] SPION^APTES-SBA-SPP04/SPION^APTES-SBA-SPP19 could bind 0.75 ng/ml LTA and 0.97 ng/ml, respectively. Thus, a reduction of LTA by 30% and 29%, respectively, could be detected by using the improved particles SPION^APTES-SBA-SPP04/SPION^APTES-SBA-SPP19 as disclosed herein.

SPION^APTES-SBA-SPP04: APTES-coated SPIONs linked via SBA to peptide SPP04 (SEQ ID NO: 1) (RKQGRVEVLYRASWGTVC; also: conjugated via SBA linker to APTES-coated SPIONs)
remaining micromer^LPS [1]: 0.023 mg/mL
replating of extracted bacteria (E. coli [2]; EDTA-stabilized blood): 1066 CFU/ml
reduction of bacterial load (E. coli [2]; EDTA-stabilized blood, 0.3 mg Fe/ml): around 40%
E. coli remaining in blood (E. coli [2]; EDTA-stabilized blood, from 2867 CFU/ml, 0.3 mg Fe/ml): 1733 CFU/ml
replating of extracted bacteria (E. coli [2]; citrate-stabilized blood): 913 CFU/ml
E. coli remaining in blood (E. coli [2]; citrate-stabilized blood, from 1913 CFU/ml, 0.3 mg Fe/ml): 927 CFU/ml
particle diameter after functionalization with peptide [3]: 2.54 μm
E. coli in supernatant (E. coli [4]; 0.1 mg Fe/ml): 170 CFUs
E. coli in supernatant (E. coli [4]; 1.0 mg Fe/ml): 2 CFU/ml
Pseudomonas aeruginosa after separation (Pseudomonas aeruginosa): 2 CFU/ml
Serratia marcescens after separation (Serratia marcescens; from 1300 CFU/ml, 0.3 mg Fe/ml): 26 CFU/ml
recovery from redispersed, plated particles (Serratia marcescens; re-plating, Serratia marcescens): 1227 CFU/ml
Staphylococcus aureus after separation (Staphylococcus aureus): 27 CFU/ml
CFU of re-plated bacteria loaded particles (Staphylococcus aureus): in the range of the positive control; also recorded: even increased
plating of sample concentrated with SPIONs (bacteria): dense bacterial lawn
binding of LPS ([5]; 0.01 mg Fe/ml (FIG. 8C, D)): about 50%
reduction / binding of LPS, all LPS types ([5]; 0.01 mg Fe/ml, 3 seconds): at least 40%
reduction of LPS, all three LPS types ([5]; 0.01 mg Fe/ml, 30 seconds): at least 48%
LPS bound ([5]; 1 mg Fe/ml, 3 s): 94%
remaining LPS ([5]; 1 mg Fe/ml, 3 s): up to 6%
LPS removal ([5]; 1 mg Fe/ml, 30 s of agitation): completely removed the LPS below the detection limit; also recorded: completely removed the endotoxin below the detection limit
reduction of LTA [6]: 30%
LTA bound [6]: 0.75 ng/mL

SPION^APTES-SBA-SPP19: APTES-coated SPIONs linked via SBA to peptide SPP19 (SEQ ID NO: 2) (RKQGRVEILYRGSWGTVC; also: conjugated via SBA linker to APTES-coated SPIONs)
Pseudomonas aeruginosa after separation (Pseudomonas aeruginosa): 7 CFU/ml
Staphylococcus aureus after separation (Staphylococcus aureus): 73 CFU/ml
CFU of re-plated bacteria loaded particles (Staphylococcus aureus): in the range of the positive control
reduction of LTA [6]: 29%
LTA bound [6]: 0.97 ng/mL
